# Results: patent US8124129B2, “Crystalline form of the compound A-348441” (Karo Bio AB, priority 2005, dated 2012)
# Legend:
# Assay type in all cases: physicochemical
# [1] = Stability study under accelerated conditions: crystalline form by differential scanning calorimetry; details: 3 months, 40° C./75% Residual Humidity
# Method: (§1) Three samples of Compound I were packaged separately in double polyethylene bags in a small cardboard box, which were stored in a stability chamber under accelerated conditions (40° C./75% […] Humidity). Sample 1 was 10 g of crystalline Form 1; Sample 2 was 2 g of amorphous product prepared as described in Example 1B above; and Sample 3 was 2 g of crystalline Form 2 made as described in Example 1A above.
# (§2) Impurity profile, moisture content and crystalline form were measured on the samples, and then again approximately 3 months later for Sample 1, and 2 months later for Samples 2 and 3.
# [2] = Solubility (general statement)
# [3] = Stability study under accelerated conditions: impurity profile / overall purity by HPLC; details: for overall purity (HPLC) after storage: 2 months; for overall purity (HPLC), initial: before storage
# Method: as §2
# The impurity profile was measured by HPLC.
# [4] = Stability study under accelerated conditions: moisture content by Karl Fischer analysis
# Method: as §1, §2
# Karl Fischer analysis was used to measure moisture content.
# [5] = compared with crystalline form of Example 1S of WO 2004/000869 and amorphous form, general statement
# [6] = 40° C./75% Residual Humidity, double polyethylene bags
smiles,measurement,setting,value
"CC#C[C@]1(O)CC[C@H]2[C@@H]3CCC4=CC(=O)CCC4=C3[C@@H](c3ccc(N(C)CCO[C@H]4CC[C@@]5(C)[C@@H](C4)C[C@@H](O)[C@@H]4[C@@H]5C[C@H](O)[C@]5(C)[C@@H]([C@H](C)CCC(=O)O)CC[C@@H]45)cc3)C[C@@]21C [Sample 1, (3β,5β,7α,12α)-7,12-dihydroxy-3-{2-[{4-[17β-hydroxy-3-oxo-17α-prop-1-ynylestra-4,9-dien-11β-yl]phenyl}(methyl)amino]ethoxy}cholan-24-oic acid]",change in crystalline form (DSC thermograms),[1],no change in crystalline form
same,solubility,[2],low solubility
same,change of overall purity (HPLC) after storage,"[3]; 3 months, 40° C./75% Residual Humidity, double polyethylene bags",did not change
same,"stability under accelerated conditions, overall conclusion",[3]; compared with Compound I in other forms,more stable
same,stability,[3]; [5],improved stability
same,water uptake (Karl Fischer) after storage,"[4]; 3 months, 40° C./75% Residual Humidity",little water uptake
same,hygroscopicity,[4]; [5],lower hygroscopicity
"CC#C[C@]1(O)CC[C@H]2[C@@H]3CCC4=CC(=O)CCC4=C3[C@@H](c3ccc(N(C)CCO[C@H]4CC[C@@]5(C)[C@@H](C4)C[C@@H](O)[C@@H]4[C@@H]5C[C@H](O)[C@]5(C)[C@@H]([C@H](C)CCC(=O)O)CC[C@@H]45)cc3)C[C@@]21C [Sample 2, (3β,5β,7α,12α)-7,12-dihydroxy-3-{2-[{4-[17β-hydroxy-3-oxo-17α-prop-1-ynylestra-4,9-dien-11β-yl]phenyl}(methyl)amino]ethoxy}cholan-24-oic acid]",overall purity (HPLC) after storage,[3]; [6],96.7%
same,"overall purity (HPLC), initial",[3],97.3%
same,water content (Karl Fischer) after storage,"[4]; 2 months, 40° C./75% Residual Humidity",5%
same,"moisture content, initial",[4]; before storage,anhydrous
"CC#C[C@]1(O)CC[C@H]2[C@@H]3CCC4=CC(=O)CCC4=C3[C@@H](c3ccc(N(C)CCO[C@H]4CC[C@@]5(C)[C@@H](C4)C[C@@H](O)[C@@H]4[C@@H]5C[C@H](O)[C@]5(C)[C@@H]([C@H](C)CCC(=O)O)CC[C@@H]45)cc3)C[C@@]21C [Sample 3, (3β,5β,7α,12α)-7,12-dihydroxy-3-{2-[{4-[17β-hydroxy-3-oxo-17α-prop-1-ynylestra-4,9-dien-11β-yl]phenyl}(methyl)amino]ethoxy}cholan-24-oic acid]",overall purity (HPLC) after storage,[3]; [6],90.7%
same,"overall purity (HPLC), initial",[3],93.2%
same,water uptake (Karl Fischer) after storage,"[4]; 2 months, 40° C./75% Residual Humidity, relative to Samples 1 and 2",intermediate behaviour
